Test results published in patent US10039741B2, “Use of delta tocopherol for the treatment of lysosomal storage disorders” (The United States of America, as represented by the …, priority 2010, dated 2018).

Experiments:
Format in all cases: cell-based, human
NPC cells = tested on: NPC cells
Method: We disclose that the compound's cytotoxicity could interfere with these cell-based assays that often appeared as the false positives for cholesterol reduction and lysosome size decrease. […] Although the tocotrienol effect on these NPCD cells were observed, they were more toxic in our assays and the additional compound purification (to 99%).
To measure the cytotoxicity of compounds, an ATP content assay was used with a commercial assay kit (ATP-Lite, PerkinElmer). Cells were seeded in white solid 1536-well plates and treated with compounds same as in the cholesterol oxidase assay describe above. After 3-day compound treatment, 3 μl/well detection mixture (prepared according to the manufacturer's instructions) was added to each well and the plates were incubated for 10 min at room temperature followed by a measurement using a Viewlux plate reader in a luminescence mode. The buffer in the detection mixture lyses cells and releases cellular ATP which reacts with luciferin in the presence of luciferase to produce light. The luminescence signal reduces if the cells are killed by the compound during the 3-day treatment.

Wolman disease cells = experiment: Amplex-red cholesterol assay (total cholesterol), combination therapy
From the text: (1) Amplex-red cholesterol assay. This biochemical assay (Invitrogen) uses cholesterol oxidase and a HRP-Amplex-re reporting system to measure the free cholesterol level in cells. With the addition of acid lipase to this assay, that hydrolyzes cholesterol ester to free cholesterol, the level of total cholesterol in cells including the cholesterol ester can be measured. This assay was used for detecting the total cholesterol level of in fibroblasts from patients with Wolman disease.

NPC fibroblasts = experiment: Lipid measurement by mass spectrometry (GC/MS); settings: 80 μM α-tocopherol or 40 uM δ-tocopherol for 5 days
Method: (§1) Effects of δ-tocopherol and α-tocopherols on (FIG. 4A) free cholesterol, (FIG. 4B) cholesterol ester and (FIG. 4C) sphingomyelin in NPC cells. NPC or WT cells were treated with DMSO, 80 μM α-tocopherol or 40 uM δ-tocopherol for 5 days. Cell pellets were collected and extracted for lipids. FC EC and sphingomyelin levels were measured by GC/MS. (FIG. 4D) Effects of δ-tocopherols and α-tocopherols on cholesterol efflux.
(§2) Cell pellets were collected from 100-mm dishes and washed once with 10 ml PBS. Proteins were assayed using the BCA kit (Sigma-Aldrich) and lipids were extracted by modified Bligh and Dyer procedure (29) from the cells. Internal standards were added based on protein concentration that included N12:0 sphingomyelin, D7-cholesterol, 17:0 cholesterol ester (Avanti Polar Lipids, Inc). A portion of the lipid extract was used for detection of sphingomyelins using direct infusion mass spectrometric assay with lithium hydroxide for facilitating ionization and the rest was used to convert cholesterol and its ester into acetate by derivatization. The derivatization was performed by treating the dried crude lipid extract with solutions of 1 M acetic acid with 1 M DMAP in chloroform and 1 M EDC in chloroform at 50° C. for 2 hours. The derivatized product was extracted with hexane and analyzed by direct infusion mass spectrometric assay with 5% ammonium hydroxide for facilitating ionization.
(§3) A triple-quadrupole mass spectrometer equipped with an electrospray was used for analysis of lipids in positive mode. Sphingomyelins, cholesterol and cholesterol esters were detected by neutral loss scan of 213 (collision energy: 50 V), neutral loss scan of 77 (collision energy: 14 V) and precursor ion scan of m/z 369 (collision energy: 14 V) respectively. Data processing of mass spectrometric analyses including ion peak selection, data transferring, peak intensity comparison and quantitation was conducted using self-programmed Microsoft Excel macros (30).

wild type cells = experiment: Lipid measurement by mass spectrometry (GC/MS)
Method: as §1, §2, §3

[1] = wild type cells, 80 μM α-tocopherol or 40 uM δ-tocopherol for 5 days

## Cc1cc(O)cc2c1O[C@](C)(CCC[C@H](C)CCC[C@H](C)CCCC(C)C)CC2 [δ-tocopherol]
NPC cells
  cytotoxicity: not present
Wolman disease cells; 40 μM delta-tocopherol or 80 μM alpha-tocopherol alone
  cholesterol level, sole therapy: cholesterol reduction effect
Wolman disease cells; delta-tocopherol 10 μM combined with 10 μM MBCD
  cholesterol level, combination: cholesterol reduction effect
Wolman disease cells; sub-effective concentrations combined
  interaction of delta-tocopherol and cyclodextrin: synergetic or additive effect
NPC fibroblasts; NPCD cells
  amount of cholesterol ester: significantly reduced
  sphingomyelin amount: not significantly changed
NPC fibroblasts; NPCD fibroblasts
  free cholesterol level: nearly recovered to the normal level as in the wild type cells
Wild type cells; normal (WT) cells, 5 days
  free cholesterol level: reduced slightly
Wild type cells; [1]
  amount of cholesterol ester: significantly reduced
  sphingomyelin amount: not significantly changed
